Article PMC8973283, “First-in-Humans Evaluation of a PD-L1–Binding Peptide PET Radiotracer in Non–Small Cell Lung Cancer Patients” (Journal of Nuclear Medicine, 2022)
One block for each compound: values may come before it.

How the values were obtained:
[1] = tested on: NSCLC lesions; conditions: human, in vivo
Protocol: Patients were injected intravenously with ^68Ga-NOTA-WL12 (1.9–3.7 MBq/kg). To determine the optimal peptide dose required to obtain high-contrast images, an escalated nonradiolabeled WL12 mass dose was coadministered with the imaging agent. The first 2 patients received 0 μg, the next 3 received 5 ug, then 60 ug, and the final group of 3 received 120 μg. […] The first patient underwent a dynamic scan at 6 time points in 1 h. The remaining 8 patients underwent PET/CT at 1 h after injection, and 6 of those were also scanned at 2 h after injection (2 patients were unable to tolerate the full 2-h examination). […] Images were reconstructed with ordered-subset expectation maximization. […] CT data were used to correct the PET images for attenuation. Vital signs, laboratory studies, and electrocardiograms were obtained before injection, during the screening period, and 2 d after PET/CT.
Images were analyzed by 2 experienced nuclear medicine physicians. […] To compare the uptake differences between the liver, spleen, small intestine (SI), and kidney among patients coadministered with different doses of WL12, multisite measurement was applied, and the uptake was calculated as an average of the number of patients corresponding to different dose administrations separately (Supplemental Fig. 3). […]

[2] = tested on: NSCLC lesions; conditions: human, in vivo; cited from earlier work
[3] = Clinical safety monitoring after PET/CT; assay type: in vivo, human
Protocol: Patients were injected intravenously with ^68Ga-NOTA-WL12 (1.9–3.7 MBq/kg). To determine the optimal peptide dose required to obtain high-contrast images, an escalated nonradiolabeled WL12 mass dose was coadministered with the imaging agent. The first 2 patients received 0 μg, the next 3 received 5 ug, then 60 ug, and the final group […] received 120 μg. […] The first patient underwent a dynamic scan at 6 time points in 1 h. The remaining 8 patients underwent PET/CT at 1 h after injection, and 6 of those were also scanned at 2 h after injection (2 patients were unable to tolerate the full 2-h examination). […] Images were reconstructed with ordered-subset expectation maximization. CT reconstruction used a standard method with a 512 × 512 matrix and a layer thickness of 3–5 mm. CT data were used to correct the PET images for attenuation. Vital signs, laboratory studies, and electrocardiograms were obtained before injection, during the screening period, and 2 d after PET/CT.

[4] = biological target: T1, PD-L1 (CHO-hPD-L1 cells) (Homo sapiens, UniProt Q9NZQ7); assay: In vitro cellular uptake in CHO-hPD-L1 versus CHO cells; assay type: cell-based; conditions: CHO-hPD-L1 vs CHO cells
T1 construct: expressed in transfected cells
Source text: The Chinese hamster ovary (CHO) cell line was obtained from American Type Culture Collection. A CHO cell line with constitutive PD-L1 expression (CHO-hPD-L1) was generated in our laboratory and described previously ([23]). Details of the cell culture, flow cytometry analysis for PD-L1 expression, and in vitro assays are provided in the supplemental materials.

[5] = in vivo; conditions: NOD/SCID, mouse, iv, 7.4 MBq (~0.17 ug), total radioactivity
[6] = Radiation dosimetry in patients (OLINDA/EXM); assay type: in vivo, human; conditions: administered dose 224 ± 37 MBq, n = 4
Protocol: Data from 4 patients with 120 μg of coinjected WL12 were used for ^68Ga-NOTA-WL12 dosimetry analysis, and the heart contents, lungs, liver, spleen, pancreas, kidneys, uterus, urinary bladder contents, and body remainder were selected as source organs. The volumes of the source organs manually drawn on CT images were calculated, and their mean counts/mL (kBq/mL) were determined from PET images at 1 and 2 h time points. Dosimetry was estimated using OLINDA/EXM software (version 2.0; Hermes Medical Solutions AB). Detailed procedures are provided in the supplemental materials.

[7] = tested on: CHO-hPD-L1 tumors; assay: Small-animal PET of NOD/SCID mice bearing CHO-hPD-L1 tumors; conditions: 50 μg blocking dose coinjected
[8] = biological target: PD-L1 (Homo sapiens, UniProt Q9NZQ7); assay: First-in-human PET/CT in advanced NSCLC patients: tumor uptake and biodistribution
Protocol: (§1) Patients were injected intravenously with ^68Ga-NOTA-WL12 (1.9–3.7 MBq/kg). To determine the optimal peptide dose required to obtain high-contrast images, an escalated nonradiolabeled WL12 mass dose was coadministered with the imaging agent. The first 2 patients received 0 μg, the next 3 received 5 ug, then 60 ug, and the final group of 3 received 120 μg. […] The first patient underwent a dynamic scan at 6 time points in 1 h. The remaining 8 patients underwent PET/CT at 1 h after injection, and 6 of those were also scanned at 2 h after injection (2 patients were unable to tolerate the full 2-h examination). […] Images were reconstructed with ordered-subset expectation maximization. CT reconstruction used a standard method with a 512 × 512 matrix and a layer thickness of 3–5 mm. CT data were used to correct the PET images for attenuation.
(§2) Images were analyzed by 2 experienced nuclear medicine physicians. The uptake parameters of major organs, tissues, and lesions were obtained to determine the organ biodistribution. SUVlean (SUL) was obtained by standardizing SUV to the body mass, which is less dependent on body habitus ([24]). […] Accordingly, we used SULmean and percentage of injected activity to describe radiopharmaceutical uptake in normal organs. To compare the uptake differences between the liver, spleen, small intestine (SI), and kidney among patients coadministered with different doses of WL12, multisite measurement was applied, and the uptake was calculated as an average of the number of patients corresponding to different dose administrations separately (Supplemental Fig. 3). To analyze normal organ uptake at different time points, 6 patients with 1- and 2-h imaging were involved. The maximum, peak, and mean values of SUV and SUL in biopsied lesions were obtained and used to correlate with PD-L1 TPS. Tumor uptake of ^68Ga-NOTA-WL12 higher than that of blood pool (BP) was considered positive.

[9] = as above; conditions: human, iv
Protocol: as §1, §2

[10] = tested on: CHO tumors; assay: Small-animal PET of NOD/SCID mice bearing negative control CHO tumors; assay type: in vivo
[11] = 0, 5, 60, 120 μg WL12 coadministered
[12] = 6 patients with 1- and 2-h imaging
[13] = tumor versus lung, total radioactivity

PD-L1, sequence (Q9NZQ7 19-290): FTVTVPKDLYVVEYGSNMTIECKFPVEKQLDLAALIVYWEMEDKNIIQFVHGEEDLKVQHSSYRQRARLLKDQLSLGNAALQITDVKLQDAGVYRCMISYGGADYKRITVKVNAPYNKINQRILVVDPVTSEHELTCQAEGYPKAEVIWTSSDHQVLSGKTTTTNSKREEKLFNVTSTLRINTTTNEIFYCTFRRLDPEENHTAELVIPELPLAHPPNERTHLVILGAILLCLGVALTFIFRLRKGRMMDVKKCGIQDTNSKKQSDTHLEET
T1 sequence (Q9NZQ7 19-290): as above

SMILES: OC[C@H]1OC(O)[C@H]([18F])[C@@H](O)[C@@H]1O (stereo partly drawn) [^18F-FDG]
uptake in tumors [1]: intense
radiation dose of conventional PET/CT [2]: 7.0–14 mSv

cellular uptake in vitro [4]: PD-L1–specific uptake
tissue to tissue ratio at 2 h ([5]; tumor-to-blood-pool uptake (T/BP)): 4.5 ± 0.2
tissue to tissue ratio at 2 h ([5]; tumor-to-muscle uptake (T/M)): 19.1 ± 1.2
Effective dose per patient [6]: 4.1 mSv
tumor uptake with coinjected blocking dose (in vivo specificity) [7]: decreased
change of liver uptake with increasing coadministered precursor dose [8, 11]: decreased
change of small intestine (SI) uptake with increasing coadministered precursor dose [8, 11]: increased
change of spleen uptake with increasing coadministered precursor dose [8, 11]: gradual decrease
kidney and BP uptake at 1 h versus mass of WL12 used ([8]; 0, 5, 60, 120 μg WL12 coadministered, 1 h): remained similar
change of SI uptake from 1 to 2 h [8, 12]: significant increase
change of liver uptake from 1 to 2 h [8, 12]: significant decrease
organ uptake pattern (biodistribution) ([8]; NSCLC patients, PET/CT): mainly observed in the SI and liver
SUV ([9]; blood pool, SUVmax of blood pool (BP), patient 3, before therapy): 1.78 SUV
SUV ([9]; left adrenal metastasis, SUVmax of left adrenal metastasis, patient 9, PD-L1 TPS 80%): 5.47 SUV
SUV ([9]; primary tumor in left lung, SUVmax of primary tumor in left lung, patient 3, PD-L1 TPS 8%): 1.84 SUV
SUV ([9]; primary tumor, SUVmax of primary tumor, patient 9, PD-L1 TPS 80%): 4.87 SUV
SUV ([9]; right sacral metastasis, SUVmax of right sacral metastasis, patient 3, PD-L1 TPS 8%): 0.8 SUV
tissue to tissue ratio at 1 h [9, 13]: 4.45 ± 1.89
tissue to tissue ratio at 2 h [9, 13]: 5.18 ± 2.27
SUV ([9]; tumor, SUVmax of tumor before treatment, patient 1, PD-L1 TPS 8%): 2.21 SUV
SUV ([9]; tumor, SUVmax of tumor before treatment, patient 6, PD-L1 TPS 30%): 3.05 SUV
tumor uptake in negative control CHO tumors [10]: minimal uptake
SMILES: CCCC[C@H]1C(=O)N(C)[C@@H](CCCC)C(=O)N[C@@H](CCCNC(=O)CN2CCN(CC(=O)O)CCN(CC(=O)O)CC2)C(=O)N[C@H](C(=O)NCC(N)=O)CSCC(=O)N[C@@H](Cc2ccc(O)cc2)C(=O)N(C)[C@@H](C)C(=O)N[C@@H](CC(N)=O)C(=O)N2CCC[C@H]2C(=O)N[C@@H](Cc2c[nH]cn2)C(=O)N[C@@H](CC(C)C)C(=O)N2C[C@H](O)C[C@H]2C(=O)N[C@@H](Cc2c[nH]c3ccccc23)C(=O)N[C@@H](CO)C(=O)N[C@@H](Cc2cn(C)c3ccccc23)C(=O)N1C [^68Ga-NOTA-WL12, metal not drawn]
changes in vital signs, laboratory studies, electrocardiograms ([3]; before injection, screening period and 2 d after PET/CT): No significant changes
adverse or pharmacologic effects ([3]; nine PET/CT examinations, 1.9–3.7 MBq/kg i.v.): no adverse or clinically detectable pharmacologic effects
route of clearance ([8]; NSCLC patients, from uptake in liver, SI and kidneys): primarily through the hepatobiliary system and secondarily through renal excretion
